Consider four compounds from patent publication US12612417B2, “Deuterated analogues of selenophenochromenes, synthesis thereof, and methods of using same agents” (Latvian Institute of Organic Synthesis, priority 2019, dated 2026).

Where a name gives a salt, the structure may show the parent alone.

Data set [1] relates to HT-1080 (human fibrosarcoma). The data set can be described thus: In vitro cytotoxicity (MTT) on HT-1080. The format is cell-based. The settings on record: HT-1080, MTT, 48 h. Here is the method:
(§1) Anticancer activity of deuterated selenopheno[h]chromenes was tested in vitro using cytotoxicity assay. Thus, monolayer tumor cell lines MDA-MB-435s (human melanoma), MCF-7 (human breast adenocarcinoma, estrogen-positive), MES-SA (human uterus sarcoma), HT-1080 (human fibrosarcoma), A549 (human lung carcinoma), GM08402 (human fibroblast, apparently healthy), 3T3 (mouse embryo fibroblasts), H9C2 (rat cardiomyocytes) were cultured in standard medium DMEM (Dulbecco's modified Eagle's medium) (“Sigma”) supplemented with 10% heat-inactivated fetal bovine serum (“Sigma”). The cell viability was assessed by addition of 3-(4,5-dimethylthiazol-2-yl)-2,5-diphenyltetrazolinium bromide (MTT). Briefly, cells were seeded (2−6×10^4 cells/ml) in 96-well plates and allowed to attach for 24 h.
(§2) Tested compound solutions were prepared and serially diluted to obtain appropriate concentrations. Cells were treated with different concentrations (0.032-100 μM) and incubated for 48 h at 37° C., 5% CO2 Then the culture medium was removed and medium containing 0.2 mg/ml MTT was added. After 3 h (37° C., 5% CO2), the MTT-containing medium was removed, and 200 μl of dimethyl sulfoxide (DMSO) was immediately added to each sample. The absorbance was assessed at 540 nm on a Tecan multiplate reader Infinite 1000 (Austria). The half-maximal inhibitory concentration (IC50) of each compound was calculated using Graph Pad Prism® 3.0.

The nature of data set [2]: In vitro cytotoxicity (MTT) on GM08402. The format is cell-based, human. The settings on record: human, GM08402 fibroblasts. Here is the method: as §1, §2
The nature of data set [3]: In vitro cytotoxicity (MTT) on H9C2. It counts as cell-based, rat. The following applies: rat, H9C2 cardiomyocytes. How it is done:
as §1, §2

Another data set relates to MDA-MB-231. The data set can be described thus: In vitro cytotoxicity (MTT) on MDA-MB-231. The format is cell-based, human. The following applies: MDA-MB-231, MTT, 48 h.
In data set [4] the test system is MES-SA (human uterus sarcoma). The data set can be described thus: In vitro cytotoxicity (MTT) on MES-SA. The format is cell-based. The settings on record: 48 h. Here is the method:
as §1, §2

A short description of data set [5]: In vitro cytotoxicity (MTT) on 3T3. The format is cell-based, mouse. The following applies: mouse, 3T3 embryo fibroblasts, 3T3, MTT. How it is done: as §1, §2
In data set [6] the test system is A549 (human lung carcinoma). The data set can be described thus: In vitro cytotoxicity (MTT) on A549. It counts as cell-based. The settings on record: 48 h. Here is the method: as §1, §2
The test system of data set [7] is MCF-7 (human breast adenocarcinoma, estrogen-positive). The data set can be described thus: In vitro cytotoxicity (MTT) on MCF-7. The format is cell-based. The settings on record: MCF-7, MTT, 48 h. Here is the method:
as §1, §2

For data set [8], the system named is GM08402 (human fibroblast, apparently healthy). The data set can be described thus: In vitro cytotoxicity (MTT) on GM08402. It counts as cell-based. The settings on record: 48 h. How it is done:
as §1, §2

The subject of data set [9] is H9C2 (rat cardiomyocytes). The data set can be described thus: In vitro cytotoxicity (MTT) on H9C2. The format is cell-based. The following applies: 48 h. Here is the method:
as §1, §2

Data set [10] in a line: Metabolic stability in vitro, lysate of human hepatoma cells HepG2. It counts as in vitro ADME. The settings on record: 37° C. How it is done:
Assay: the human hepatoma cells HepG2 (ATCC HB-8065) were grown in Eagle's Minimum Essential Medium supplemented with 10% fetal calf serum. The cells were harvested at 80% confluence. The hepatocytes were scraped, two time washed in Hank's Balanced Salt Solution (HBSS) buffer pH-7.4 and suspended in homogenization buffer composed of 10 mM Tris-HCl, 10 mM KCl, 0.15 mM MgCl2 pH 6.7. The cells were homogenized on ice by homogenizer LabGEN7 (Cole Palmer) at 5000 rpm 15 sec. Homogenized cells in HBSS with compound (protein concentration is 95 μg/ml) incubate 37° C. After 10, 30, 60, 120, 180, and 240 min collect 1 ml sample and add 0.1 ml 40% TCA, then centrifugation at 1200 g for 10 min. Supernatant collected and analyzed.
Results: The stability of deuterated selenopheno[h]chromenes I-1-I-3 compared with non-deuterated analogue methyl 7-bromo-8-((4-methylpiperazin-1-yl)methyl)-2-oxo-2H-selenopheno[3,2-h]chromene-3-carboxylate dihydrochloride (I-0) was tested in vitro using lysate of human hepatoma cells HepG2. The results are presented in FIG. 1 (x-axis—minutes of incubation, y-axis—percent of remained ester).

Data set [11] deals with 3T3 (mouse embryo fibroblasts). The data set can be described thus: In vitro cytotoxicity (MTT) on 3T3. The format is cell-based. The settings on record: 3T3, MTT, 48 h. Here is the method:
as §1, §2

On to `COC(=O)c1cc2ccc3c(Br)c(CN4CCN(C)CC4)[se]c3c2oc1=O` [Compound I-0, methyl 7-bromo-8-((4-methylpiperazin-1-yl)methyl)-2-oxo-2H-selenopheno[3,2-h]chromene-3-carboxylate dihydrochloride, reference compound], for which the IC50 in [1] (Homo sapiens) was 58 ± 5 µM; in the data set with MDA-MB-231 (Homo sapiens), 95 ± 4 µM; in [4] (Homo sapiens), 56 ± 1 µM; in data set [6] (Homo sapiens) it was more than 100 µM; in data set [7] (Homo sapiens, MCF7), 54 ± 6 µM. For the same compound, the IC50 at 48 h in [2] is 77 ± 16 µM; in [3], 92 ± 12 µM; in data set [5] it was 100 ± 5 µM.

For the compound `[2H]C([2H])([2H])OC(=O)c1cc2ccc3c(Br)c(CN4CCN(C)CC4)[se]c3c2oc1=O` [Compound I-1, Methyl-d3 7-bromo-8-((4-methylpiperazin-1-yl)methyl)-2-oxo-2H-selenopheno[3,2-h]chromene-3-carboxylate dihydrochloride], the IC50 in data set [1] (Homo sapiens) was found to be 70 ± 6 µM; in the data set with MDA-MB-231 (Homo sapiens) it was 84 ± 13 µM; in [4] (Homo sapiens) it was 40 ± 7 µM; in [6] (Homo sapiens) it was 105 ± 7 µM; in data set [7] (Homo sapiens, MCF7), 82 ± 5 µM. Also, the IC50 at 48 h in data set [2] stood at 89 ± 16 µM; in data set [3] it was 82 ± 14 µM; in data set [5], 66 ± 11 µM.

On to `Cl.Cl.[2H]C([2H])([2H])C([2H])([2H])OC(=O)c1cc2ccc3c(Br)c(CN4CCN(C)CC4)[se]c3c2oc1=O` [Compound I-2, Ethyl-d5 7-bromo-8-((4-methylpiperazin-1-yl)methyl)-2-oxo-2H-selenopheno[3,2-h]chromene-3-carboxylate dihydrochloride], for which the IC50 is 59 ± 6 µM in [1] (Homo sapiens); 90 ± 15 µM in the data set on MDA-MB-231 (Homo sapiens); 56 ± 15 µM in [4] (Homo sapiens); more than 100 µM in data set [6] (Homo sapiens); 46 ± 4 µM in data set [7] (Homo sapiens, MCF7). Moreover, the values for the IC50 at 48 h in data set [2], in [3] and in [5] were 94 ± 8 µM, 73 ± 4 µM and 64 ± 9 µM, respectively.

On to “Butyl-d9 7-bromo-8-((4-methylpiperazin-1-yl)methyl)-2-oxo-2H-selenopheno[3,2-h]chromene-3-carboxylate dihydrochloride [Compound I-3]”, for which the IC50 in data set [1] stood at 31 ± 3 µM; in data set [8] it was 62 ± 3 µM; in data set [9] it was 30 ± 4 µM; in the data set with MDA-MB-231 it was 35 ± 8 µM; in data set [4], 29 ± 3 µM; in data set [11], 34 ± 7 µM. Further, the IC50 in data set [6] amounted to 40 ± 13 µM; in [7], 70 ± 3 µM. In data set [10] (after 240 minutes of incubation), the “percent of remained ester” value was found to be 24%. Further, the “stability to hydrolysis (in words)” value in data set [10] (incubation up to 240 min, FIG. 1) is “highest stability to hydrolysis”.
